In PMC6429183, “Identification of Compounds That Inhibit Estrogen-Related Receptor Alpha Signaling Using High-Throughput Screening Assays” (Molecules, 2019):
Where “and” joins values, the source holds several entries; their conditions need not be identical. Identical values can stand only once. Like-named read-outs stand apart in the source and are kept apart here. One block for each molecule: values may come before it.

Tests used:
[1] = target: T1, ERRα with PGC-1α (PGC/ERR pathway) (Homo sapiens, UniProt P11474); assay: PGC/ERR reporter (luciferase) qHTS assay, PGC/ERR-HEK293; conditions: for EC50: mean ± SD, triplicate
T1 sequence (P11474 1-423): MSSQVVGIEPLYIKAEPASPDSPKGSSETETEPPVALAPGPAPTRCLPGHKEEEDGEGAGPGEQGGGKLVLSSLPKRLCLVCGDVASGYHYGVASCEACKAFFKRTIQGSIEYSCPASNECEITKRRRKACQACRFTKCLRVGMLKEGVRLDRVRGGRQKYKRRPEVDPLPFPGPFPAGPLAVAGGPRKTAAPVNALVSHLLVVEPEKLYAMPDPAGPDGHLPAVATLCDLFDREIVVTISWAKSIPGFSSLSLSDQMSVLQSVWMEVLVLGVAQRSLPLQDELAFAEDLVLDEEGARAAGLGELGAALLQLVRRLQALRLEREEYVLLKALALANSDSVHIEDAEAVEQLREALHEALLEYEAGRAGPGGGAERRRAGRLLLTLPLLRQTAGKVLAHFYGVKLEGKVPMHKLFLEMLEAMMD

COX8α = assay: qRT-PCR mRNA expression of ERR downstream gene COX8α; format: cell-based; conditions: ERR reporter cells, vs GAPDH, DMSO = 0%
Method: (§1) Total RNA was isolated from treated ERR reporter cells using an RNeasy Mini Kit (Qiagen, Germantown, MD, USA), homogenized using a QIAshredder (Qiagen), and reverse transcribed with a High-Capacity RNA-to-cDNA™ Kit (ThermoFisher Scientific, Inc.) following the manufacturers’ instructions. Expression of ERRα, COX8α, IDH3α, PPARα, COX4I1, and cytochrome c genes was normalized against GAPDH. All primers were purchased from ThermoFisher Scientific, Inc. Real-time PCR assays were performed in 384-well plates on a QuantStudio 5 (Applied Biosystems, Foster City, CA, USA) with TaqMan™ Gene Expression Master Mix (ThermoFisher Scientific, Inc.). Induction values were calculated using the equation: Fold = 2^ΔΔCt, where ΔCt represents the differences in cycle threshold numbers between each of the target genes and GAPDH, and ΔΔCt represents the relative change in these differences between control and treatment groups. Experimental data are presented as a mean of triplicate determinations ± SD. Statistical comparisons were made by t-test, while the statistical significance was set at p values of <0.05 (light blue), <0.01 (medium blue), and <0.001 (dark blue).

cytochrome c = assay: qRT-PCR mRNA expression of ERR downstream gene cytochrome c; format: cell-based; conditions: ERR reporter cells, vs GAPDH, DMSO = 0%
Method: as §1

[2] = system: Nrf2/antioxidant response element (ARE); assay: Nrf2/ARE-HepG2 β-lactamase reporter agonist assay; format: cell-based; conditions: agonist mode, heatmap outcome
Method: After the assay plates were incubated at 37 °C for 5–6 h, 23 nL of compounds dissolved in DMSO or positive controls were transferred to the assay plates via a Wako Pintool station (Wako). Except for ARE and p53, all other assays received 1 µL/well agonist (10 nM R1881 for AR; 0.5 and 5 nM β-estradiol for ERα and ERβ respectively; 300 µM CDCA for FXR; 50 nM Rosiglitazone for PPARγ; and 5 nM R5020 for PR) or assay medium using a Flying Reagent Dispenser (FRD). The assay plates were incubated for 16 h (AR, Nrf2/ARE, ERβ, FXR, p53, and PR), 17 h (PPARγ), or 18 h (ERα) at 37 °C, and 1 µL/well LiveBLAzer™ FRET-B/G CCF4-AM substrate (ThermoFisher Scientific, Inc.) detection mix was added using an FRD and the plates were incubated at room temperature for 2 h. […] Data were expressed as the ratio of 460/530 nm emission values.

IDH3α = assay: qRT-PCR mRNA expression of ERR downstream gene IDH3α; format: cell-based; conditions: ERR reporter cells, vs GAPDH, DMSO = 0%
Method: as §1

PPARα = assay: qRT-PCR mRNA expression of ERR downstream gene PPARα; format: cell-based; conditions: ERR reporter cells, vs GAPDH, DMSO = 0%
[3] = target: T2, estrogen-related receptor alpha (ERRα) (Homo sapiens, UniProt P11474); assay: ERR reporter (luciferase) antagonist qHTS assay, ERR-HEK293
T2 sequence (P11474 1-423): T1 sequence (P11474 1-423)
Method: The ERR reporter HEK293 cells were cultured in high glucose DMEM medium (ThermoFisher Scientific, Inc., Waltham, MA, USA) supplemented with 10% fetal bovine serum (FBS; ThermoFisher Scientific, Inc.), 4 mM of L-glutamine (ThermoFisher Scientific, Inc.), 1 mM of sodium pyruvate (ThermoFisher Scientific, Inc.), 100 U/mL of penicillin and 100 mg/mL of streptomycin (ThermoFisher Scientific, Inc.). PGC/ERR reporter HEK293 cells were cultured in the same medium as the ERR reporter HEK293 cells with an additional 1 μg/mL puromycin (ThermoFisher Scientific, Inc.) as the selection marker for PGC-1α expression.
The DMSO-only compound plates at the beginning and end of the compound plate stack were used to correct the data set by applying an in-house pattern correction algorithm [90]. The half maximum inhibition values (IC50) for each compound and maximum response (efficacy) values were obtained by fitting the concentration-response curves of each compound to a four-parameter Hill equation [91]. […] For each reading, the activity outcome of a test compound was first categorized by the average curve rank from the triplicate runs and the reproducibility calls. The final activity outcome of each compound was based on the ERR antagonist readout activity and cell viability counter screen.

[4] = system: ERR reporter HEK293 cells; assay: CellTiter-Fluor cell viability assay multiplexed with ERR reporter assay; format: cell-based; conditions: Homo sapiens, HEK293
Method: (§2) ERR or PGC/ERR reporter HEK293 cells suspended in culture medium without puromycin were dispensed at 2500 cells/5 μL/well in tissue culture–treated 1536-well white assay plates (Greiner Bio-One North America, Monroe, NC, USA) using a Thermo Scientific Multidrop Combi (ThermoFisher Scientific, Inc.). […] After the cells were incubated at 37 °C with 5% CO2 for 6 h, 23 nL of compounds or control, XTC790, was transferred into the assay plates using a Wako Pintool station (Wako Automation, San Diego, CA, USA). The assay plates were incubated at 37 °C for 18 h, followed by the addition of 5 μL ONE-Glo luciferase reagent (Promega, Madison, WI, USA) using a Flying Reagent Dispenser (Aurora Discovery, Carlsbad, CA, USA). After 30 min of incubation at room temperature, the luminescence intensity of the assay plates was quantified using a ViewLux plate reader (PerkinElmer, Shelton, CT, USA). The assays were performed three times for each compound concentration. These ERR and PGC/ERR reporter assays were multiplexed with the CellTiter-Fluor Cell Viability Assay (Promega), a fluorescence-based cell viability assay, to assess compound cytotoxicity.
The qHTS data were analyzed as described previously. […] The DMSO-only compound plates at the beginning and end of the compound plate stack were used to correct the data set by applying an in-house pattern correction algorithm. The half maximum inhibition values (IC50) for each compound and maximum response (efficacy) values were obtained by fitting the concentration-response curves of each compound to a four-parameter Hill equation [91]. […] For each reading, the activity outcome of a test compound was first categorized by the average curve rank from the triplicate runs and the reproducibility calls. The final activity outcome of each compound was based on the ERR antagonist readout activity and cell viability counter screen.

COX4I1 = assay: qRT-PCR mRNA expression of ERR downstream gene COX4I1; format: cell-based; conditions: ERR reporter cells, vs GAPDH, DMSO = 0%
Method: as §1, with “Experimental data are presented as a mean of triplicate determinations ± SD. Statistical comparisons were made by t-test, while the statistical significance was set at p values of <0.05 (light blue), <0.01 (medium blue), and <0.001 (dark blue).” left out

[5] = system: PGC/ERR reporter HEK293 cells; assay: CellTiter-Fluor cell viability assay multiplexed with PGC/ERR reporter assay; format: cell-based; conditions: Homo sapiens
Method: as §2
The qHTS data were analyzed as described previously. Each titration point was normalized relative to the positive control compound (XCT790 = −100%) and DMSO-only wells (0%) according to the following equation: % Activity = [(Vcompound − VDMSO)/(VDMSO − Vpos)] × 100, where Vcompound denotes the compound well values, Vpos denotes the median value of the positive control wells, and VDMSO denotes the median values of the DMSO-only wells. The DMSO-only compound plates at the beginning and end of the compound plate stack were used to correct the data set by applying an in-house pattern correction algorithm. The half maximum inhibition values (IC50) for each compound and maximum response (efficacy) values were obtained by fitting the concentration-response curves of each compound to a four-parameter Hill equation [91]. Compounds were designated as Class 1–4 according to the type of concentration–response curve observed. For each reading, the activity outcome of a test compound was first categorized by the average curve rank from the triplicate runs and the reproducibility calls. The final activity outcome of each compound was based on the ERR antagonist readout activity and cell viability counter screen.

EC50 ([1]; PGC/ERR-HEK293 Follow-Up EC50, follow-up screen): 189 ± 39.6 nM
EC50 ([1]; PGC/ERR-HEK293 Primary EC50, primary qHTS, 18 h): 61.5 ± 19.8 nM
PGC/ERR-HEK293 Follow-Up Efficacy ([1]; follow-up screen, negative = antagonism, positive = agonism): −150 ± 8.02%
activity in the ERR/PGC assay ([1]; in words): antagonism
PGC/ERR-HEK293 Primary Efficacy ([1]; primary qHTS, negative = antagonism, positive = agonism): −121 ± 7.36%
EC50 ([3]; ERR-HEK293 Follow-Up EC50, follow-up (confirmation) screen, mean ± SD, triplicate): 61.7 ± 7.86 nM
EC50 ([3]; ERR-HEK293 Primary EC50, primary qHTS, 18 h, 15 concentrations, mean ± SD, triplicate): 55.2 ± 3.74 nM
ERR-HEK293 Follow-Up Efficacy ([3]; follow-up screen, relative to XCT790 = −100%): −126 ± 10.9%
EC50 ([3]; potency, ERR antagonist assay, primary screen): 55 nM
ERR-HEK293 Primary Efficacy ([3]; primary qHTS, relative to XCT790 = −100%, DMSO = 0%): −107% and −107 ± 2.77%
Molecule: CC(C)C[C@H](NC(=O)[C@H](CCc1ccccc1)NC(=O)CN1CCOCC1)C(=O)N[C@@H](Cc1ccccc1)C(=O)N[C@@H](CC(C)C)C(=O)[C@@]1(C)CO1 [Carfilzomib]
Percent inhibition of mRNA gene expression, COX8α (COX8α; 60 nM): 39.6% and 39.6 ± 1.81%
Percent inhibition of mRNA gene expression, Cytochrome C (cytochrome c; 60 nM): 44.2% and 44.2 ± 0.70%
activity in the Nrf2-ARE assay [2]: active agonists
Percent inhibition of mRNA gene expression, IDH3α (IDH3α; 60 nM): 1.73 ± 0.76%
Percent inhibition of mRNA gene expression, PPARα (PPARα; 60 nM): 7.39 ± 4.61%
EC50 ([4]; follow-up screen, viability, read-out: ERR-HEK293 Follow-Up Viability EC50 (converted)): 274 nM
EC50 ([4]; primary qHTS, viability counter screen, read-out: ERR-HEK293 Primary Viability EC50 (converted)): 178 nM
Percent inhibition of mRNA gene expression, COX4I1 (COX4I1; 60 nM): 37.8 ± 5.12%
EC50 ([5]; HEK293, follow-up screen, read-out: PGC/ERR-HEK293 Follow-Up Viability EC50 (converted)): 471 nM
EC50 ([5]; HEK293, primary qHTS, read-out: PGC/ERR-HEK293 Primary Viability EC50 (converted)): 1360 nM

Molecule: COc1cc(/C=C(\C#N)C(=O)Nc2nnc(C(F)(F)F)s2)ccc1OCc1ccc(C(F)(F)F)cc1C(F)(F)F [XCT790]
Percent inhibition of mRNA gene expression, COX8α (COX8α; 12 µM, mean ± S.D.): 65.0 ± 8.41%
Percent inhibition of mRNA gene expression, Cytochrome C (cytochrome c; 12 µM): 60.8 ± 2.16%
Percent inhibition of mRNA gene expression, IDH3α (IDH3α; 12 µM): 42.6 ± 6.59%
Percent inhibition of mRNA gene expression, PPARα (PPARα; 12 µM): 16.0 ± 1.70%
Percent inhibition of mRNA gene expression, COX4I1 (COX4I1; 12 µM): 46.0 ± 2.16%

Molecule: Acriflavine hydrochloride
Percent inhibition of mRNA gene expression, COX8α (COX8α; 3 µM): 30.2 ± 18.2%
Percent inhibition of mRNA gene expression, Cytochrome C (cytochrome c; 3 µM): 41.8% and 41.8 ± 3.72%
activity in the Nrf2-ARE assay [2]: inconclusive
Percent inhibition of mRNA gene expression, IDH3α (IDH3α; 3 µM): 74.2% and 74.2 ± 9.92%
Percent inhibition of mRNA gene expression, COX4I1 (COX4I1; 3 µM): 4.76 ± 8.24%
